Columns and labels:
β-galactosidase = β-galactosidase (Escherichia coli, UniProt P00722); assay: Conversion of Imiquimod-β-galactopyranoside (6) to Imiquimod by exogenous β-galactosidase, LC-MS/MS; type: biochemical, E. coli
Method: (§1) For LC-MS/MS experiments, mobile phase A consisted of 0.05% formic acid and 0.2% acetic acid in water, and mobile phase B comprised 90% acetonitrile, 9.9% water, and 0.1% formic acid. Using a flow rate of 400 μL/min, mobile phase B 5% isocratic for 0.5 min, before gradient to 95% B over 2.2 min, followed by 95% isocratic for 0.1 min. The total chromatographic assay time (including time to equilibrate for the next run) was 4.0 min per sample. Optimized mass spectrometer parameters were as follows: collision gas, 20 psig; curtain gas, 20 psig; ion source gas 1, 60 psig; ion source gas 2, 40 psig; ion spray voltage, 5500 V; desolvation temperature, 600° C.; declustering potential, 70 V; entrance potential, 10 V; collision energy, 50 V; collision cell exit potential, 10 V. The substrate was detected using multiple reaction monitoring mode by monitoring the m/z fragmentation from 597.8 to 241.2 Da for (6) and the Imiquimod product was monitored for 241.2 to 185.1 Da fragmentation.
To confirm the chemical identity of Imiquimod liberated by β-gal-mediated conversion of (6), an end-point assay was performed using 1 U of β-gal in 200 μL of 10 μm (6) incubated for 16 h (37° C., 5% CO2). To stop the reaction, 50 μL AO Quench Internal Standard (20 μg/mL 2-methyl-4(3H)-quinazolinone in 1 m formic acid) was added to the reaction. This aliquot was compared to a 200 μL sample of 10 μm (6) without β-gal enzyme.
To determine the conversion of Imiquimod-β-Galactopyranoside (6) to Imiquimod in the presence of β-gal over time for exogenous experiments, aliquots (200 μL) of (6) at a concentration of 5 μm in DPBS were incubated with β-gal (1 U, 37° C., 5% CO2). To stop the reaction at the specified time points (0, 1, 2 min), 50 μL AO Quench Internal Standard (20 μg/mL 2-methyl-4(3H)-quinazolinone in 1 m formic acid) was added to each individual reaction. Depletion of (6) was measured by LC-MS/MS for each time point. […] Similar to above, aliquots of (6) for various time points (0, 0.25, 0.5, 1, 2, 3 h) were tested for conversion to immunostimulant by exogenous β-galactosidase.
β-galactosidase from E. coli was diluted with sterile Dulbecco's Phosphate Buffer Saline (DPBS) to an initial concentration of 5,000 U/mL. Aliquots of this stock were diluted with additional DPBS to a concentration of 500 U/mL and 5 mU/mL. Because of the E. coli source for β-galactosidase, samples were filtered with a sterile 0.2 μm syringe filter to guard against potential residual bacteria. Absence of bacteria was confirmed prior to use; filtered samples were plated on an agar plate and incubated for 3 days (37° C., 5% CO2). No bacterial growth was observed from the filtered enzyme.

[1] = test system: β-galactosidase-enriched B16 melanoma cells; assay: Conversion of (6) to Imiquimod by β-galactosidase-enriched B16 cells, LC-MS/MS; type: cell-based, murine
Method: as §1
Murine melanoma cells (B16-F10, 5×10^6 cells) were removed from cell culture and pelletized via centrifuge (200 RCF, 0° C., 10 min). The supernatant was removed from the cell pellet, and cells were suspended in 1.5 mL of complete culture media (10% HI-FBS in DMEM) or preservative free FACS solution (10% HI-FBS in DPBS) that was pre-chilled on ice. Next, 15 μL of 0.5 mg/mL biotinylated α-gp-100 antibody (Abcam, UK) was added to the suspended cells, and the suspension was incubated on ice for 30 min with occasional shaking. Cells were then pelletized (200 RCF, 10 min, 0° C.) and washed 4 times each with 10 mL of chilled preservative free FACS solution (10% HI-FBS in DPBS). Washing Procedure: The cell pellet was suspended in 10 mL of FACS and centrifuged (200 RCF, 0° C., 10 min). Supernatant was removed from pellet, and the cells were suspended in subsequent chilled FACS solution for 1 min with constant shaking before this procedure was repeated. […] Enzyme enrichment (20-350 pU/cell) was quantified as average increase in enzymatic activity per cell determined by NPG colorimetric assay.

AT3B1 cells = assay: Conversion of pro-immunostimulant to Imiquimod by α-Mannosidase or AT3B-1 cells, LC-MS/MS; type: cell-based, rat; settings: α-Mannosidase 0.1 U/mL or AT3B1 cells, 0-48 h
Method: To concretely determine the conversion of pro-immunostimulant (compound 6) to Imiquimod in the presence of α-Mannosidase over time for exogenous and endogenous experiments, 20 μL aliquots of 100 μM (pro-immunostimulant (compound 6)) in DMEM were incubated with 180 μL of either α-Mannosidase (0.1 U/mL, 37° C., 5% CO2), or AT3B1 cells (1×105, or 5×105, or 1×10^6 cells, 37° C., 5% CO2) without the addition of exogenous enzyme as shown by FIG. 6. To stop the reaction at the specified time points (0, 1, 2, 3, 6, 12, 24, and 48 h), 50 μL AO Quench Internal Standard (20 μg/mL, 2-methyl-4(3H)-quinazolinone in 1 M formic acid) was added to each individual reaction. Samples were then analyzed via LC-MS/MS.
The AT3B-1 cell line (ATCC CRL-2375, rat prostate epithelial malignant carcinoma) were grown in complete culture media composed of Roswell Park Memorial Institute (RPMI) 1640 medium with 4.5 g/L glucose, 2 mM L-glutamine, 10,000 U/mL penstrep, 10 mM HEPES and supplemented with 10% HI-FBS and 1 μM doxorubicin. Media was changed every 3-4 days omitting the doxorubicin, and cells were passaged once per week. Passaging involved changing media, counting, and seeding 3×10^5 cells in 35 mL of new complete media in a new T-175 culture flask.
α-Mannosidase from Canavalia ensiformis (Jack bean) was used directly from the bottle to make a 1 U/mL stock solution in DPBS. […]

Sequence of β-galactosidase (P00722 2-1024): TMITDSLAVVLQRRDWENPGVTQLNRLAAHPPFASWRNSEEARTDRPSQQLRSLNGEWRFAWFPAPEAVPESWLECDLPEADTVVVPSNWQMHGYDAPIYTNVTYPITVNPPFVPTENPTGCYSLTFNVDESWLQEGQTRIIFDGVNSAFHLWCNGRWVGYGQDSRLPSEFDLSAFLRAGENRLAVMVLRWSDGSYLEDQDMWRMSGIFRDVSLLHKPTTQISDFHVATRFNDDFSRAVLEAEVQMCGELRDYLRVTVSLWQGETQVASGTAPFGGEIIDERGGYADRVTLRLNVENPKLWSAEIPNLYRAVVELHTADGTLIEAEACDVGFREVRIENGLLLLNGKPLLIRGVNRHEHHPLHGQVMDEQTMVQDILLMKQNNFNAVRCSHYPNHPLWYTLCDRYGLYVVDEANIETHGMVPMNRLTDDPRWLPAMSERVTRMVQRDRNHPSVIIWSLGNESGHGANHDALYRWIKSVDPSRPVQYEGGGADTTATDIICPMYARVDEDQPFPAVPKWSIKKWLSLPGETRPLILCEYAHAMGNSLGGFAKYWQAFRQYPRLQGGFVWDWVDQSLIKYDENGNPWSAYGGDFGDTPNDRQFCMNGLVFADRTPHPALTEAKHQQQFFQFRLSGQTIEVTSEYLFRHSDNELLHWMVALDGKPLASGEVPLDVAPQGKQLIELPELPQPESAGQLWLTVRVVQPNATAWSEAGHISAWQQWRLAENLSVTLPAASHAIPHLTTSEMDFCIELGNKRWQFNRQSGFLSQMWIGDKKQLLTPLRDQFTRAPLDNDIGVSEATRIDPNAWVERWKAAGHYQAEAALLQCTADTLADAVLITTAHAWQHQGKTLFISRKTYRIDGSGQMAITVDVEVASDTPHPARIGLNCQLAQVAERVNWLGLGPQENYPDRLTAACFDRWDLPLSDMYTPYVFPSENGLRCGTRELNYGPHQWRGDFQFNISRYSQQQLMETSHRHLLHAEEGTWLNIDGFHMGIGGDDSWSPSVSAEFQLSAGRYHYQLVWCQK

4-Imiquimod-2-nitrophenyl-galactopyranoside [compound 6]
depletion of (6) (β-galactosidase; 5 μm in DPBS, β-gal 1 U, 0, 1, 2 min): rapid depletion | stability without β-gal enzyme (no residual Imiquimod observed) (β-galactosidase; 10 μm (6) without β-gal enzyme): stable | conversion to Imiquimod (depletion of (6) and formation of Imiquimod) (β-galactosidase; exogenous β-galactosidase 5 mU, over 3 h): near quantitative conversion | conversion into Imiquimod (β-galactosidase; β-galactosidase 1 U, 2 nmol (200 μL of 10 μm), 16 h, 37° C.): quantitative conversion | conversion of the compound ([1]; β-galactosidase-enriched B16 cells (5 mU), over 3 h): quantitative conversion | conversion to Imiquimod ([1]; β-galactosidase-enriched B16 cells, 1×10^5 cells/well, 35 mU/well, 24 h): near quantitative conversion | conversion into Imiquimod ([1]; β-galactosidase-enriched B16 cells, after 3 h): > 36% | conversion to Imiquimod and efflux (AT3B1 cells): still being converted in the presence of enzyme and effluxed

— US11117918B2, “Enzyme-directed immunostimulant and uses thereof” (Washington State University, priority 2016, dated 2021)
